In this test the test system is metastin receptors. In words: Measurement of agonist activity by assaying changes in intracellular calcium ion level (FLIPR, Fluo-4 NW). Type of test: cell-based, human. The note with it: specific activity of the EC50 of a test compound based on the EC50 of Metastin (45-54), metastin receptor expression CHO cells. How it is done: 1) Preparation of Human Metastin and Rat Metastin Stable Expression Cell Lines
Human metastin and rat metastin stable expression cell lines were obtained by transfecting the expression plasmid for animal cells into CHO/dhfr^− cells using CellPhect Transfection Kit (manufactured by GE Healthcare). First, 240 μL of Buffer A (attached to CellPhect Transfection Kit) was added to 9.6 μg of plasmid DNA dissolved in 240 μL of distilled water followed by stirring. After the mixture was settled for 10 minutes, 480 μL of Buffer B (attached to CellPhect Transfection Kit) was added to the mixture, which was vigorously stirred to form liposomes containing the DNA. Then, 4×10^5 CHO/dhfr^− cells (obtained from ATCC) were inoculated on a 60 mm Petri dish. After culturing the cells in Ham's F-12 medium (manufactured by Nissui Seiyaku Co., Ltd.) supplemented with 10% fetal bovine serum (manufactured by BIO […], Inc.) at 37° C. for 2 days in 5% carbon dioxide gas, […] of the liposomes were dropwise added to the cells on the Petri dish. After culturing the cells in a CO2 incubator (5% CO2, 37° C.) for 6 hours, the cells were washed twice with serum-free Ham's F-12 medium and 3 mL of 15% glycerol was added to the cells on the Petri dish followed by treatment for 2 minutes. The cells were again washed twice with serum-free Ham's F-12 medium followed by incubation in Ham's F-12 medium supplemented with 10% fetal bovine serum in a CO2 incubator (5% CO2, 37° C.) for 15 hours. The cells were dispersed by trypsin treatment to recover from the Petri dish. The recovered cells were inoculated on a 6-well plate in 1.25×10^4 cells each/well and incubation was initiated in a CO2 incubator (5% CO2, 37° C.) in Dulbecco's modified Eagle medium (DMEM, manufactured by Nissui Seiyaku) containing 10% dialyzed fetal bovine serum (manufactured by JRH BIOSCIENCES, Inc.). The plasmid-transfected CHO transformants grew in the medium but the non-transfected cells gradually died, accordingly the medium was exchanged on Days 1 and 2 after the initiation of incubation to remove the dead cells. Approximately 20 colonies of the CHO transformants that kept growing on Days 8 to 10 after the incubation were isolated. From the cells in these colonies, cells showing high reactivity with the ligand peptide metastin (hereinafter merely referred to as h175 KB19 and h175 KB29 strains) were selected to provide for the following experiment.
Human metastin expression CHO cell line (h175 KB19 strain is described in a separate section) and rat metastin expression CHO cell line (h175 KB29 strain is described in a separate section) were seeded in a 96-well plate (type 3904, manufactured by Corning) at 3×10^4 cells/well, followed by incubation in a CO2 incubator (5% CO2, 37° C.) for 24 hours. For the medium, MEMα medium (nucleic acid-free, manufactured by Nikken Bio Medical Laboratory) supplemented with dialyzed 10% fetal bovine serum (manufactured by Thermo, MultiSer) was used.
3) Loading with Fluo-4 NW in Cells
As an assay buffer, 1× Hanks' balanced salt solution (HBSS, manufactured by GIBCO) supplemented with 0.1% BSA, 20 mM HEPES (pH 7.4, manufactured by GIBCO) and 1 mM Probenecid (manufactured by Molecular Probes) was prepared. The medium in the wells of the cell-seeded plate was removed and 100 μL each of the assay buffer (kept warm at 37° C.) was added to each well. After 10 mL of the assay buffer (the volume for assaying two plates) was charged in one Fluo-4NW dye mix (Component A, Fluo-4 NW calcium assay kit (starter pack), manufactured by Molecular Probes) bottle, the mixture was gently stirred to prepare the Fluo-4 NW loading solution. This loading solution was charged in each well by 50 μl each and reacted in a CO2 incubator (5% CO2, 37° C.) for 30 minutes for loading with Fluo-4 NW into the cells. Subsequently, the cells were settled at room temperature (25° C.) for 15 minutes and then used for assay.
4) Measurement of Agonist Activity […]

Structures are written as SMILES. *1 amine or outer side, *2 acyl side, *3 side chain or, on linkers, in order; H or OH if unused. Where a SMILES comes first, the peptide text is derived from it. [ ]: non-standard residue; d: D form. Hexanoyl(5S-NH,4S-OH,6-Ph) = O=C(CC[C@H](O)[C@H](Cc1ccccc1)N[*:1])[*:2]; X5 = O=C(/C=C/[C@H](O)[C@H](Cc1ccccc1)N[*:1])[*:2]; X4 = O=C(CCC(=O)[*:2])[C@H](Cc1ccccc1)N[*:1]; X7 = O=C(C/C=C/[C@H](Cc1ccccc1)N[*:1])[*:2]; X6 = O=C(COC[C@H](Cc1ccccc1)N[*:1])[*:2]; X9 = O=C(CCC[C@H](Cc1ccccc1)N[*:1])[*:2]; Arg(Me) = CNC(=N)NCCC[C@H](N)C(=O)O; Ala(cPr) = N[C@@H](CC1CC1)C(=O)O; Hyp = O=C(O)[C@@H]1C[C@@H](O)CN1; 2Pal = N[C@@H](Cc1ccccn1)C(=O)O; 3Pal = N[C@@H](Cc1cccnc1)C(=O)O; 4Pal = N[C@@H](Cc1ccncc1)C(=O)O; Cha = N[C@@H](CC1CCCCC1)C(=O)O

Turning to `CNC(=N)NCCC[C@H](NC(=O)[C@H](CC(C)C)NC(=O)[C@H](COC)NC(=O)[C@H](Cc1ccccc1)NC(=O)[C@@H](NC(=O)[C@H](CC(N)=O)NC(=O)[C@@H]1C[C@@H](O)CN1C(=O)[C@@H](Cc1ccc(O)cc1)NC(C)=O)[C@@H](C)O)C(=O)N[C@@H](Cc1c[nH]c2ccccc12)C(N)=O` [Compound No. 828, des(1)-Ac-[D-Tyr2,Hyp3,Thr5,Ser(Me)7,Arg(Me)9,Trp10]MS10] (Ac-[dY][Hyp]NTFS(Me)L[Arg(Me)]W-NH2), the “Specific Activity” value is 1.2.

As to `CNC(=N)NCCC[C@H](NC(=O)[C@H](CC(C)C)NC(=O)COC[C@H](Cc1ccccc1)NC(=O)[C@@H](NC(=O)[C@H](CC(N)=O)NC(=O)[C@@H]1C[C@@H](O)CN1C(=O)[C@@H](Cc1ccc(O)cc1)NC(C)=O)[C@@H](C)O)C(=O)N[C@@H](Cc1c[nH]c2ccccc12)C(N)=O` [Compound No. 834, des(1)-Ac-[D-Tyr2,Hyp3,Thr5,Phe6Ψ(CH2O)Gly7,Arg(Me)9,Trp10]MS10] (Ac-[dY][Hyp]NT[X6]L[Arg(Me)]W-NH2), the “Specific Activity” value amounted to 0.5.

As for `CNC(=N)NCCC[C@H](NC(=O)[C@H](CC(C)C)NC(=O)CNC(=O)[C@H](Cc1ccccn1)NC(=O)[C@@H](NC(=O)[C@H](CC(N)=O)NC(=O)[C@@H]1C[C@@H](O)CN1C(=O)[C@@H](Cc1ccc(O)cc1)NC(C)=O)[C@@H](C)O)C(=O)N[C@@H](Cc1c[nH]c2ccccc12)C(N)=O` [Compound No. 839, des(1)-Ac-[D-Tyr2,Hyp3,Thr5,Pya(2)6,Arg(Me)9,Trp10]MS10] (Ac-[dY][Hyp]NT[2Pal]GL[Arg(Me)]W-NH2), the “Specific Activity” value is on record as 1.2.

With `CNC(=N)NCCC[C@H](NC(=O)[C@H](CC(C)C)NC(=O)[C@@H](NC(=O)[C@H](Cc1ccccc1)NC(=O)[C@@H](NC(=O)[C@H](CC(N)=O)NC(=O)[C@@H]1C[C@@H](O)CN1C(=O)[C@@H](Cc1ccc(O)cc1)NC(C)=O)[C@@H](C)O)C(C)C)C(=O)N[C@@H](Cc1c[nH]c2ccccc12)C(N)=O` [Compound No. 847, des(1)-Ac-[D-Tyr2,Hyp3,Thr5,Val7,Arg(Me)9,Trp10]MS10] (Ac-[dY][Hyp]NTFVL[Arg(Me)]W-NH2), the “Specific Activity” value turned out to be 1.7.

Regarding `CNC(=N)NCCC[C@H](NC(=O)[C@H](CC(C)C)NC(=O)CNC(=O)[C@H](Cc1cccnc1)NC(=O)[C@@H](NC(=O)[C@H](CC(N)=O)NC(=O)[C@@H]1C[C@@H](O)CN1C(=O)[C@@H](Cc1ccc(O)cc1)NC(C)=O)[C@@H](C)O)C(=O)N[C@@H](Cc1c[nH]c2ccccc12)C(N)=O` [Compound No. 848, des(1)-Ac-[D-Tyr2,Hyp3,Thr5,Pya(3)6,Arg(Me)9,Trp10]MS10] (Ac-[dY][Hyp]NT[3Pal]GL[Arg(Me)]W-NH2), the “Specific Activity” value amounted to 0.9.

Take `CNC(=N)NCCC[C@H](NC(=O)[C@H](CC(C)C)NC(=O)CNC(=O)[C@H](Cc1ccncc1)NC(=O)[C@@H](NC(=O)[C@H](CC(N)=O)NC(=O)[C@@H]1C[C@@H](O)CN1C(=O)[C@@H](Cc1ccc(O)cc1)NC(C)=O)[C@@H](C)O)C(=O)N[C@@H](Cc1c[nH]c2ccccc12)C(N)=O` [Compound No. 849, des(1)-Ac-[D-Tyr2,Hyp3,Thr5,Pya(4)6,Arg(Me)9,Trp10]MS10] (Ac-[dY][Hyp]NT[4Pal]GL[Arg(Me)]W-NH2): the “Specific Activity” value came to 0.9.

For the compound `CNC(=N)NCCC[C@H](NC(=O)[C@H](CC(C)C)NC(=O)CCC[C@H](Cc1ccccc1)NC(=O)[C@@H](NC(=O)[C@H](CC(N)=O)NC(=O)[C@@H]1C[C@@H](O)CN1C(=O)[C@@H](Cc1ccc(O)cc1)NC(C)=O)[C@@H](C)O)C(=O)N[C@@H](Cc1c[nH]c2ccccc12)C(N)=O` [Compound No. 850, des(1)-Ac-[D-Tyr2,Hyp3,Thr5,Phe6Ψ(CH2CH2)Gly7,Arg(Me)9,Trp10]MS10] (Ac-[dY][Hyp]NT[X9]L[Arg(Me)]W-NH2), the “Specific Activity” value is 1.3.

For `CNC(=N)NCCC[C@H](NC(=O)[C@H](CC(C)C)NC(=O)CCC(=O)[C@H](Cc1ccccc1)NC(=O)[C@@H](NC(=O)[C@H](CC(N)=O)NC(=O)[C@@H]1C[C@@H](O)CN1C(=O)[C@@H](Cc1ccc(O)cc1)NC(C)=O)[C@@H](C)O)C(=O)N[C@@H](Cc1c[nH]c2ccccc12)C(N)=O` [Compound No. 851, des(1)-Ac-[D-Tyr2,Hyp3,Thr5,Phe6Ψ(COCH2)Gly7,Arg(Me)9,Trp10]MS10] (Ac-[dY][Hyp]NT[X4]L[Arg(Me)]W-NH2), the “Specific Activity” value is listed as 1.1.

As for `CNC(=N)NCCC[C@H](NC(=O)[C@H](CC(C)C)NC(=O)CNC(=O)[C@H](Cc1ccccc1)NC(=O)[C@@H](NC(=O)[C@H](CC(N)=O)NC(=O)[C@H](CCC(=O)O)NC(=O)[C@@H](Cc1ccc(O)cc1)NC(C)=O)[C@@H](C)O)C(=O)N[C@@H](Cc1c[nH]c2ccccc12)C(N)=O` [Compound No. 852, des(1)-Ac-[D-Tyr2,Glu3,Thr5,Arg(Me)9,Trp10]MS10] (Ac-[dY]ENTFGL[Arg(Me)]W-NH2), the “Specific Activity” value is 0.5.

As to `CNC(=N)NCCC[C@H](NC(=O)[C@H](CC(C)C)NC(=O)CNC(=O)[C@H](CC1CCCCC1)NC(=O)[C@@H](NC(=O)[C@H](CC(N)=O)NC(=O)[C@H](CCC(=O)O)NC(=O)[C@@H](Cc1ccc(O)cc1)NC(C)=O)[C@@H](C)O)C(=O)N[C@@H](Cc1c[nH]c2ccccc12)C(N)=O` [Compound No. 853, des(1)-Ac-[D-Tyr2,Glu3,Thr5,Cha6,Arg(Me)9,Trp10]MS10] (Ac-[dY]ENT[Cha]GL[Arg(Me)]W-NH2), the “Specific Activity” value is 0.6.

With `CNC(=N)NCCC[C@H](NC(=O)[C@H](CC(C)C)NC(=O)CNC(=O)[C@H](CC1CC1)NC(=O)[C@@H](NC(=O)[C@H](CC(N)=O)NC(=O)[C@@H]1C[C@@H](O)CN1C(=O)[C@@H](Cc1ccc(O)cc1)NC(C)=O)[C@@H](C)O)C(=O)N[C@@H](Cc1c[nH]c2ccccc12)C(N)=O` [Compound No. 855, des(1)-Ac-[D-Tyr2,Hyp3,Thr5,Ala(cPr)6,Arg(Me)9,Trp10]MS10] (Ac-[dY][Hyp]NT[Ala(cPr)]GL[Arg(Me)]W-NH2), the “Specific Activity” value worked out at 1.9.

In the case of `CNC(=N)NCCC[C@H](NC(=O)[C@H](CC(C)C)NC(=O)CC[C@H](O)[C@H](Cc1ccccc1)NC(=O)[C@@H](NC(=O)[C@H](CC(N)=O)NC(=O)[C@@H]1C[C@@H](O)CN1C(=O)[C@@H](Cc1ccc(O)cc1)NC(C)=O)[C@@H](C)O)C(=O)N[C@@H](Cc1c[nH]c2ccccc12)C(N)=O` [Compound No. 857, des(1)-Ac-[D-Tyr2,Hyp3,Thr5,Phe6Ψ((S)CHOH—CH2)Gly7,Arg(Me)9,Trp10]MS10] (Ac-[dY][Hyp]NT[Hexanoyl(5S-NH,4S-OH,6-Ph)]L[Arg(Me)]W-NH2), the “Specific Activity” value is given as 1.2.

With `CNC(=N)NCCC[C@H](NC(=O)[C@H](CC(C)C)NC(=O)/C=C/[C@H](O)[C@H](Cc1ccccc1)NC(=O)[C@@H](NC(=O)[C@H](CC(N)=O)NC(=O)[C@@H]1C[C@@H](O)CN1C(=O)[C@@H](Cc1ccc(O)cc1)NC(C)=O)[C@@H](C)O)C(=O)N[C@@H](Cc1c[nH]c2ccccc12)C(N)=O` [Compound No. 858, des(1)-Ac-[D-Tyr2,Hyp3,Thr5,Phe6Ψ((S)CHOH—(E)CH=)Gly7,Arg(Me)9,Trp10]MS10] (Ac-[dY][Hyp]NT[X5]L[Arg(Me)]W-NH2), the “Specific Activity” value worked out at 1.7.

In the case of `CNC(=N)NCCC[C@H](NC(=O)[C@H](CC(C)C)NC(=O)C/C=C/[C@H](Cc1ccccc1)NC(=O)[C@@H](NC(=O)[C@H](CC(N)=O)NC(=O)[C@@H]1C[C@@H](O)CN1C(=O)[C@@H](Cc1ccc(O)cc1)NC(C)=O)[C@@H](C)O)C(=O)N[C@@H](Cc1c[nH]c2ccccc12)C(N)=O` [Compound No. 859, des(1)-Ac-[D-Tyr2,Hyp3,Thr5,Phe6Ψ((E)CH═CH)Gly7,Arg(Me)9,Trp10]MS10] (Ac-[dY][Hyp]NT[X7]L[Arg(Me)]W-NH2), the “Specific Activity” value came to 0.7.

For the origin of these results see patent publication US7786083B2, “Metastin derivatives and use thereof” (Takeda Pharmaceutical Company Limited, priority 2006, dated 2010).
